Biological target: T1, Human orexin receptor type 2 (Homo sapiens, UniProt O43614)
T1 construct: expressed in transfected cells; host or cells: CHO cells (transient expression, with apoaequorin)
T1 sequence (O43614 1-444): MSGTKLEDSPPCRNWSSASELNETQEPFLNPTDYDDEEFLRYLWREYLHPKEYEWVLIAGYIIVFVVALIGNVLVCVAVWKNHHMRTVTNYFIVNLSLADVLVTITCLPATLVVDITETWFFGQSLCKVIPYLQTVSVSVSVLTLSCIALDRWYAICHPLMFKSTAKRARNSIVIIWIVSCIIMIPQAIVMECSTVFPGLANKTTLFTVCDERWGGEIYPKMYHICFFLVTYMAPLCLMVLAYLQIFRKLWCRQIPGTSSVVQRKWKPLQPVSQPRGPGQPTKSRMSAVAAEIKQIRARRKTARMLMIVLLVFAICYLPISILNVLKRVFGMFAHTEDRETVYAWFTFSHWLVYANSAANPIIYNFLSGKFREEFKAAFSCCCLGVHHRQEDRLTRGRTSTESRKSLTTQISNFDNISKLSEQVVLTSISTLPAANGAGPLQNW
Assay: Test Example 1: agonist activity for orexin receptor type 2 (aequorin luminescence, intracellular calcium mobilization in CHO cells)
Assay type: cell-based
Details: compound 10 μM; relative percentage of luminescence for the luminescence (100%) of Orexin A (100 μM); CHO cells transiently expressing human orexin receptor type 2 and apoaequorin
Description: Test Example 1: Measurement of Agonist Activity for Orexin Receptor Type 2
(§1) Human orexin receptor type 2 and apoaequorin were transiently expressed in CHO cells, and the agonist activity was evaluated based on intracellular calcium mobilization with ligand stimulation. The CHO cells transiently-expressed human orexin receptor type 2 and apoaequorin were seeded on a 384-well plate by 2,000 cells/well, and then incubated for 16-22 hours. After the plate was returned to room temperature, Coelenterazine hcp (final concentration: 1 μM) was added to the plate, and the plate was allowed to stand at room temperature for 2 hours. And then, Orexin A or each test compound was added to the plate, and the luminescence of the cells was measured with FDSS7000 (Hamamatsu Photonics K.K.), wherein Orexin A and each test compound were dissolved in DMSO (final concentration: 0.1%), and diluted with a buffer (Hanks, 20 mM HEPES, 0.1% BSA). The agonist activity of each test compound for orexin receptor type 2 was calculated as relative percentage of luminescence for the luminescence (100%) of Orexin A (100 μM).
(§2) Each agonist activity of the compounds obtained in Examples (10 μM) for orexin receptor type 2 is shown in the table below as relative percentage of luminescence for the luminescence (100%) of Orexin A (100 μM).

Row | SMILES | Agonist Activity (%)
1 | CC(C)N1CCN([C@H]2CCCC(F)(F)[C@@H]2NC(=O)N2C[C@H]3C[C@@H](c4noc(C5CC5)n4)C[C@H]3C2)CC1 [Example 8, (3aR,5R,6aS)-5-(5-cyclopropyl-1,2,4-oxadiazol-3-yl)-N-{(1R,6S)-2,2-difluoro-6-[4-(propan-2-yl)piperazin-1-yl]cyclohexyl}hexahydropenta[c]pyrrole-2(1H)-carboxamide] | 423
2 | CC(C)N1CCN([C@H]2CCCC(F)(F)[C@@H]2NC(=O)N2C[C@H]3CC(c4ccccc4)=C[C@H]3C2)CC1 [Example 10] | 450
3 | Cc1ccc([C@@H]2C[C@@H]3CN(C(=O)N[C@@H]4[C@@H](N5CCN(C(C)C)CC5)CCCC4(F)F)C[C@@H]3C2)cc1 [Example 13, (3aR,5R,6aS)—N-{(1R,6S)-2,2-difluoro-6-[4-(propan-2-yl)piperazin-1-yl]cyclohexyl}-5-(4-methylphenyl)hexahydropenta[c]pyrrole-2(1H)-carboxamide] | 466
4 | CC(C)N1CCN([C@H]2CCCC(F)(F)[C@@H]2NC(=O)N2C[C@H]3C[C@@H](c4cccc(F)c4)C[C@H]3C2)CC1 [Example 16, (3aR,5R,6aS)—N-{(1R,6S)-2,2-difluoro-6-[4-(propan-2-yl)piperazin-1-yl]cyclohexyl}-5-(3-fluorophenyl)hexahydropenta[c]pyrrole-2(1H)-carboxamide] | 491
5 | CC(C)N1CCN([C@H]2CCCC(F)(F)[C@@H]2NC(=O)N2C[C@@H]3CN(c4ccccc4)C[C@@H]3C2)CC1 [Example 11, (3aR,6aS)—N-{(1R,6S)-2,2-difluoro-6-[4-(propan-2-yl)piperazin-1-yl]cyclohexyl}-5-phenylhexahydropyrrolo[3,4-c]pyrrole-2(1H)-carboxamide] | 477
6 | CC(C)N1CCN([C@H]2CCCC(F)(F)[C@@H]2NC(=O)N2C[C@H]3C[C@@H](c4ccccc4)C[C@H]3C2)CC1 [Example 9, (3aR,5R,6aS)—N-{(1R,6S)-2,2-difluoro-6-[4-(propan-2-yl)piperazin-1-yl]cyclohexyl}-5-phenylhexahydropenta[c]pyrrole-2(1H)-carboxamide] | 424
7 | CC(C)N1CCN([C@H]2CCCC(F)(F)[C@@H]2NC(=O)N2C[C@H]3CC(c4ccccc4)C[C@H]3C2)CC1 (stereo partly drawn) [Example 12, (3aR,5S,6aS)—N-{(1R,6S)-2,2-difluoro-6-[4-(propan-2-yl)piperazin-1-yl]cyclohexyl}-5-phenylhexahydropenta[c]pyrrole-2(1H)-carboxamide] | 492
8 | CC(C)N1CCN([C@H]2CCCC(F)(F)[C@@H]2NC(=O)N2C[C@H]3C[C@H](c4noc([C@@H]5C[C@@H]5F)n4)C[C@H]3C2)CC1 [Example 2, (3aR,5S,6aS)—N-{(1R,6S)-2,2-difluoro-6-[4-(propan-2-yl)piperazin-1-yl]cyclohexyl}-5-{5-[(1S,2S)-2-fluorocyclopropyl]-1,2,4-oxadiazol-3-yl}hexahydropenta[c]pyrrole-2(1H)-carboxamide] | 275
9 | Cc1ccccc1[C@@H]1C[C@@H]2CN(C(=O)N[C@@H]3[C@@H](N4CCN(C(C)C)CC4)CCCC3(F)F)C[C@@H]2C1 [Example 14, (3aR,5R,6aS)—N-{(1R,6S)-2,2-difluoro-6-[4-(propan-2-yl)piperazin-1-yl]cyclohexyl}-5-(2-methylphenyl)hexahydropenta[c]pyrrole-2(1H)-carboxamide] | 446
10 | CC(C)N1CCN([C@H]2CCCC(F)(F)[C@@H]2NC(=O)N2C[C@H]3C[C@H](c4noc(C5CC5)n4)C[C@H]3C2)CC1 [Example 1, (3aR,5S,6aS)-5-(5-Cyclopropyl-1,2,4-oxadiazol-3-yl)-N-{(1R,6S)-2,2-difluoro-6-[4-(propan-2-yl)piperazin-1-yl]cyclohexyl}hexahydropenta[c]pyrrole-2(1H)-carboxamide] | 375
11 | CC(C)N1CCN([C@H]2CCCC(F)(F)[C@@H]2NC(=O)N2C[C@H]3C[C@@H](c4ccccc4F)C[C@H]3C2)CC1 [Example 17, (3aR,5R,6aS)—N-{(1R,6S)-2,2-difluoro-6-[4-(propan-2-yl)piperazin-1-yl]cyclohexyl}-5-(2-fluorophenyl)hexahydropenta[c]pyrrole-2(1H)-carboxamide] | 315
12 | CC(C)N1CCN([C@H]2CCCC(F)(F)[C@@H]2NC(=O)N2C[C@@H]3[C@H](C2)[C@@H]3c2noc(C3CC3)n2)CC1 [Example 4, (1R,5S,6S)-6-(5-cyclopropyl-1,2,4-oxadiazol-3-yl)-N-{(1R,6S)-2,2-difluoro-6-[4-(propan-2-yl)piperazin-1-yl]cyclohexyl}-3-azabicyclo[3.1.0]hexane-3-carboxamide] | 15
13 | CC(C)N1CCN([C@H]2CCCC(F)(F)[C@@H]2NC(=O)N2C[C@H]3C[C@@H](c4ccc(F)cc4)C[C@H]3C2)CC1 [Example 15, (3aR,5R,6aS)—N-{(1R,6S)-2,2-difluoro-6-[4-(propan-2-yl)piperazin-1-yl]cyclohexyl}-5-(4-fluorophenyl)hexahydropenta[c]pyrrole-2(1H)-carboxamide] | 511
14 | CC(C)N1CCN([C@H]2CCCC(F)(F)[C@@H]2NC(=O)N2C[C@@H]3C[C@](C)(c4noc(C5CC5)n4)C[C@@H]3C2)CC1 [Example 6, (3aR,5R,6aS)-5-(5-cyclopropyl-1,2,4-oxadiazol-3-yl)-N-{(1R,6S)-2,2-difluoro-6-[4-(propan-2-yl)piperazin-1-yl]cyclohexyl}-5-methylhexahydropenta[c]pyrrole-2(1H)-carboxamide] | 282
15 | CC(C)N1CCN([C@H]2CCCC(F)(F)[C@@H]2NC(=O)N2C[C@@H]3C[C@](C)(c4noc([C@@H]5C[C@@H]5F)n4)C[C@@H]3C2)CC1 [Example 7, (3aR,5R,6aS)—N-{(1R,6S)-2,2-difluoro-6-[4-(propan-2-yl)piperazin-1-yl]cyclohexyl}-5-{5-[(1S,2S)-2-fluorocyclopropyl]-1,2,4-oxadiazol-3-yl}-5-methylhexahydropenta[c]pyrrole-2(1H)-carboxamide] | 328
16 | CC(C)N1CCN([C@H]2CCCC(F)(F)[C@@H]2NC(=O)N2C[C@@H]3[C@H](C2)[C@H]3c2noc(C3CC3)n2)CC1 [Example 3, (1R,5S,6R)-6-(5-cyclopropyl-1,2,4-oxadiazol-3-yl)-N-{(1R,6S)-2,2-difluoro-6-[4-(propan-2-yl)piperazin-1-yl]cyclohexyl}-3-azabicyclo[3.1.0]hexane-3-carboxamide] | 217
17 | CC(C)N1CCN([C@H]2CCCC(F)(F)[C@@H]2NC(=O)N2CC[C@H]3C[C@H](c4noc(C5CC5)n4)[C@H]3C2)CC1 [Example 5] | 79

Biological target: T1, Human orexin receptor type 2
Assay: Test Example 2: agonist activity for orexin receptor type 2 (aequorin luminescence, intracellular calcium mobilization in CHO cells)
Assay type: cell-based
Details: compound 10 μM; relative percentage of luminescence for the luminescence (100%) of Orexin A (100 μM); CHO cells transiently expressing human orexin receptor type 2 and apoaequorin
Description: Test Example 2: Measurement of Agonist Activity for Orexin Receptor Type 2
as §1, with “Orexin A (PEPTIDE INSTITUTE, INC., Lot. 711101) or each” for “Orexin A or each”
as §2

Row | SMILES | Agonist Activity (%)
18 | CC(C)N1CCN([C@H]2CCCC(F)(F)[C@@H]2NC(=O)N2C[C@H]3C[C@@H](c4ccccn4)C[C@H]3C2)CC1 [Example 25, (3aR,5R,6aS)—N-{(1R,6S)-2,2-difluoro-6-[4-(propan-2-yl)piperazin-1-yl]cyclohexyl}-5-(pyridin-2-yl)hexahydropenta[c]pyrrole-2(1H)-carboxamide] | 396
19 | CC(C)N1CCN([C@H]2CCCC(F)(F)[C@@H]2NC(=O)N2C[C@H]3C[C@@H](c4ncccn4)C[C@H]3C2)CC1 [Example 26, (3aR,5R,6aS)—N-{(1R,6S)-2,2-difluoro-6-[4-(propan-2-yl)piperazin-1-yl]cyclohexyl}-5-(pyrimidin-2-yl)hexahydropenta[c]pyrrole-2(1H)-carboxamide] | 345
20 | CC(C)N1CC[C@H](N(C)[C@H]2CCCC(F)(F)[C@@H]2NC(=O)N2C[C@@H]3CN(c4ccccc4)C[C@@H]3C2)C1 [Example 34, (3aR,6aS)—N-[(1R,6S)-2,2-difluoro-6-{methyl[(3S)-1-(propan-2-yl)pyrrolidin-3-yl]amino}cyclohexyl]-5-phenylhexahydropyrrolo[3,4-c]pyrrole-2(1H)-carboxamide] | 341
